Bridge positions count the residues as written; N and C are the ends. Square brackets hold non-standard residues; d marks the D form. Peptide text beside a SMILES is read from it. Hyp = O=C(O)[C@@H]1C[C@@H](O)CN1; Cit = NC(=O)NCCC[C@H](N)C(=O)O
Tests used:
[1] = Physical stability of peptide analogues (Thioflavin T fibrillation); type: physicochemical; settings: maximum ThT signal normalized between hAMY maximum and buffer background; 40° C., shaking, four days; pH 7 per table title
Summary of the method: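 1 h in 50 mM NaOAc pH 4 / 50 mM NaPi pH 7; + ThT 4 μM final; 40 °C, 700 rpm linear shake 5 min pre-read; ex 450, em 480 nm q10 min × 4 d; LOESS smoothing; max signal normalised to hAMY max vs buffer blank.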

hAM1 receptor = hAM1 receptor (Homo sapiens, UniProt O60895+Q16602); assay: cAMP assay for in vitro receptor activation, hAM1-R; type: cell-based; settings: cAMP assay, hAM1 receptor; read-out: hAM1R EC50
Chain of hAM1 receptor (Q16602 23-461): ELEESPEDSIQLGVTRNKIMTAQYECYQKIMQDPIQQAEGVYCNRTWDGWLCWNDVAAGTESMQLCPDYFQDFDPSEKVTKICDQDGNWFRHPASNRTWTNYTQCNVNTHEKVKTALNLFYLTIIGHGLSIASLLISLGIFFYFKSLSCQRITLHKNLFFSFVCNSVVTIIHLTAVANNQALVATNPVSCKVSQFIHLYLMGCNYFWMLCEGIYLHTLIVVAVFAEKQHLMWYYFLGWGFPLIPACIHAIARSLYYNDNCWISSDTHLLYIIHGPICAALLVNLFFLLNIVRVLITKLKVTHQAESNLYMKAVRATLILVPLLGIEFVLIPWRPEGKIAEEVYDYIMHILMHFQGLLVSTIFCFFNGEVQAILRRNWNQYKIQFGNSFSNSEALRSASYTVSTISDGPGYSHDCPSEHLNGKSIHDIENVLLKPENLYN
Chain of hAM1 receptor (O60895 43-175 partner): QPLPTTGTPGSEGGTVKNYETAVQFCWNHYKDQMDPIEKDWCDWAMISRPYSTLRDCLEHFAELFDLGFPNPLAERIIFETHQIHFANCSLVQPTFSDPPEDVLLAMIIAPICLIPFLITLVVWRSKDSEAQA
Summary of the method: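 Receptor activation, read as cAMP, was assessed in thawed cells of a monoclonal hAM1-overexpressing stable line, plated at 8000 cells/well in DPBS supplemented with 0.05% casein and 0.5 mM IBMX.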

hAMY3 receptor = target: T1, hAMY3 receptor (Homo sapiens, UniProt O60896+P30988); assay: cAMP assay for in vitro receptor activation, hAMY3-R; type: cell-based; settings: cAMP assay, hAMY3 receptor; read-out: hAMY3R EC50
T1 sequence (P30988 25-474): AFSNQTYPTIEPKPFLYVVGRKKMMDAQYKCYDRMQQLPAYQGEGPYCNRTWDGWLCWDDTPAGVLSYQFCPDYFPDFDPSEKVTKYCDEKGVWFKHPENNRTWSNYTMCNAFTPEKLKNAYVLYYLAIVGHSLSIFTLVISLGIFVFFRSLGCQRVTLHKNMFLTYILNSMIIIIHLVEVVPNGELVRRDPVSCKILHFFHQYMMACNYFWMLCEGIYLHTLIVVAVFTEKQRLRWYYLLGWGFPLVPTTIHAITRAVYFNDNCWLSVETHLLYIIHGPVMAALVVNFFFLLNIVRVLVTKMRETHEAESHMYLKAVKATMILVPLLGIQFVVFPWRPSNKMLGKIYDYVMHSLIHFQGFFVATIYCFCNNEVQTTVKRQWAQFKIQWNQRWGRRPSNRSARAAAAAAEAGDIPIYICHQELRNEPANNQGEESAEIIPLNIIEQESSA
T1 sequence (O60896 24-148 partner): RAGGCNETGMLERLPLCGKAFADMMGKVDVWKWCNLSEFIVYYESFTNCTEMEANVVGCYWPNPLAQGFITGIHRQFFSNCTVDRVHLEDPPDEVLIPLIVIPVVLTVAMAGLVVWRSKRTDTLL
Summary of the method: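 Monoclonal cell line stably overexpressing human AMY3 receptor, 2000 cells/well in DPBS with 0.05% casein and 0.5 mM IBMX. Stimulated 30 min at room temperature with graded compound doses, human amylin as positive control. cAMP accumulation read by TR-FRET after one hour.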

CC[C@H](C)[C@H](NC(=O)[C@H](CCC(N)=O)NC(=O)[C@H](Cc1c[nH]cn1)NC(=O)[C@H](C)NC(=O)[C@H](CC(C)C)NC(=O)[C@H](CCCNC(=N)N)NC(=O)[C@H](CCC(N)=O)NC(=O)[C@@H](NC(=O)[C@@H](NC(=O)[C@@H]1CSSC[C@H](NC(=O)[C@@H](N)CCCCN)C(=O)N[C@@H](CC(N)=O)C(=O)N[C@@H]([C@@H](C)O)C(=O)N[C@@H](C)C(=O)N[C@@H]([C@@H](C)O)C(=O)N1)[C@@H](C)O)C(C)C)C(=O)N[C@@H](Cc1ccc(O)cc1)C(=O)N[C@@H](CCC(N)=O)C(=O)N[C@@H](Cc1ccccc1)C(=O)N[C@@H](C)C(=O)N[C@@H](CC(=O)O)C(=O)N[C@@H](CCCCN)C(=O)N[C@@H](CC(=O)O)C(=O)N[C@@H](CCCCN)C(=O)N[C@@H](CC(=O)O)C(=O)N[C@@H](CC(N)=O)C(=O)N[C@H](C(=O)N[C@@H](C)C(=O)N1CCC[C@H]1C(=O)N1CCC[C@H]1C(=O)N[C@H](C(=O)N[C@@H](CC(N)=O)C(=O)N[C@H](C(=O)NCC(=O)N[C@@H](CO)C(=O)N[C@@H](CC(N)=O)C(=O)NCC(=O)N1C[C@H](O)C[C@H]1C(N)=O)C(C)C)[C@@H](C)O)C(C)C [compound 23] (H-KCNTATCTVQRLAHQIYQFADKDKDNVAPPTNVGSNG[Hyp]-NH2; disulfide 2-7)
Max ThT signal (%) [1]: 4.200% | EC50 (hAM1 receptor): > 5000 nM | EC50 (hAMY3 receptor): 0.008 nM

CC[C@H](C)[C@H](NC(=O)[C@H](CCC(N)=O)NC(=O)[C@H](Cc1c[nH]cn1)NC(=O)[C@H](C)NC(=O)[C@H](CC(C)C)NC(=O)[C@H](CCCNC(=N)N)NC(=O)[C@H](CCC(N)=O)NC(=O)[C@@H](NC(=O)[C@@H](NC(=O)[C@@H]1CSSC[C@H](NC(=O)[C@@H](N)CCCCN)C(=O)N[C@@H](CC(N)=O)C(=O)N[C@@H]([C@@H](C)O)C(=O)N[C@@H](C)C(=O)N[C@@H]([C@@H](C)O)C(=O)N1)[C@@H](C)O)C(C)C)C(=O)N[C@@H](Cc1ccc(O)cc1)C(=O)N[C@@H](CCC(N)=O)C(=O)N[C@@H](Cc1ccccc1)C(=O)N[C@H](C(=O)N[C@@H](CC(=O)O)C(=O)N[C@@H](CCCCN)C(=O)N[C@@H](CC(=O)O)C(=O)N[C@@H](CCCCN)C(=O)N[C@@H](CC(=O)O)C(=O)N[C@@H](CC(N)=O)C(=O)N[C@H](C(=O)N[C@@H](C)C(=O)N1CCC[C@H]1C(=O)N[C@@H](CCCNC(=N)N)C(=O)N[C@H](C(=O)N[C@@H](CCCCN)C(=O)N[C@H](C(=O)NCC(=O)N[C@@H](CO)C(=O)N[C@@H](CC(N)=O)C(=O)NCC(=O)N1C[C@H](O)C[C@H]1C(N)=O)C(C)C)[C@@H](C)O)C(C)C)[C@@H](C)O [compound 20] (H-KCNTATCTVQRLAHQIYQFTDKDKDNVAPRTKVGSNG[Hyp]-NH2; disulfide 2-7; N-terminus assumed)
Max ThT signal (%) [1]: 9.100% | EC50 (hAM1 receptor): > 5000 nM | EC50 (hAMY3 receptor): 0.008 nM

CC[C@H](C)[C@H](NC(=O)[C@H](CCC(N)=O)NC(=O)[C@H](Cc1c[nH]cn1)NC(=O)[C@H](C)NC(=O)[C@H](CC(C)C)NC(=O)[C@H](CCCNC(N)=O)NC(=O)[C@H](CCC(N)=O)NC(=O)[C@@H](NC(=O)[C@@H](NC(=O)[C@@H]1CSSC[C@H](NC(=O)[C@@H](N)CCCCN)C(=O)N[C@@H](CC(N)=O)C(=O)N[C@@H]([C@@H](C)O)C(=O)N[C@@H](C)C(=O)N[C@@H]([C@@H](C)O)C(=O)N1)[C@@H](C)O)C(C)C)C(=O)N[C@@H](Cc1ccc(O)cc1)C(=O)N[C@@H](CCC(N)=O)C(=O)N[C@@H](Cc1ccccc1)C(=O)N[C@H](C(=O)N[C@@H](CC(=O)O)C(=O)N[C@@H](CCCCN)C(=O)N[C@@H](C)C(=O)N[C@@H](CCCCN)C(=O)N[C@@H](CC(=O)O)C(=O)N[C@@H](CC(N)=O)C(=O)N[C@H](C(=O)N[C@@H](C)C(=O)N1CCC[C@H]1C(=O)N1CCC[C@H]1C(=O)N[C@H](C(=O)N[C@@H](CC(N)=O)C(=O)N[C@H](C(=O)NCC(=O)N[C@@H](CO)C(=O)N[C@@H](CC(N)=O)C(=O)NCC(=O)N1C[C@H](O)C[C@H]1C(N)=O)C(C)C)[C@@H](C)O)C(C)C)[C@@H](C)O [compound 258] (H-KCNTATCTVQ[Cit]LAHQIYQFTDKAKDNVAPPTNVGSNG[Hyp]-NH2; disulfide 2-7; N-terminus assumed)
Max ThT signal (%) [1]: 32.700% | EC50 (hAM1 receptor): > 5000 nM | EC50 (hAMY3 receptor): 0.01 nM

CC[C@H](C)[C@H](NC(=O)[C@H](CCC(N)=O)NC(=O)[C@H](CCC(=O)O)NC(=O)[C@H](C)NC(=O)[C@H](CC(C)C)NC(=O)[C@H](CCCNC(N)=O)NC(=O)[C@H](CCC(N)=O)NC(=O)[C@@H](NC(=O)[C@@H](NC(=O)[C@@H]1CSSC[C@H](NC(=O)[C@@H](N)CCCCN)C(=O)N[C@@H](CC(N)=O)C(=O)N[C@@H]([C@@H](C)O)C(=O)N[C@@H](C)C(=O)N[C@@H]([C@@H](C)O)C(=O)N1)[C@@H](C)O)C(C)C)C(=O)N[C@@H](Cc1ccc(O)cc1)C(=O)N[C@@H](CCC(N)=O)C(=O)N[C@@H](Cc1ccccc1)C(=O)N[C@H](C(=O)N[C@@H](CC(=O)O)C(=O)N[C@@H](CCCCN)C(=O)N[C@@H](CC(=O)O)C(=O)N[C@@H](CCCCN)C(=O)N[C@@H](CC(=O)O)C(=O)N[C@@H](CC(N)=O)C(=O)N[C@H](C(=O)N[C@@H](CO)C(=O)N1CCC[C@H]1C(=O)N1CCC[C@H]1C(=O)N[C@H](C(=O)N[C@@H](CC(N)=O)C(=O)N[C@H](C(=O)NCC(=O)N[C@@H](CO)C(=O)N[C@@H](CC(N)=O)C(=O)NCC(=O)N1C[C@H](O)C[C@H]1C(N)=O)C(C)C)[C@@H](C)O)C(C)C)[C@@H](C)O [compound 266] (H-KCNTATCTVQ[Cit]LAEQIYQFTDKDKDNVSPPTNVGSNG[Hyp]-NH2; disulfide 2-7; N-terminus assumed)
Max ThT signal (%) [1]: 20.900% | EC50 (hAM1 receptor): > 5000 nM | EC50 (hAMY3 receptor): 0.053 nM

CC[C@H](C)[C@H](NC(=O)[C@H](CCC(N)=O)NC(=O)[C@H](Cc1c[nH]cn1)NC(=O)[C@H](C)NC(=O)[C@H](CC(C)C)NC(=O)[C@H](CCCNC(N)=O)NC(=O)[C@H](CCC(N)=O)NC(=O)[C@@H](NC(=O)[C@@H](NC(=O)[C@@H]1CSSC[C@H](NC(=O)[C@@H](N)CCCCN)C(=O)N[C@@H](CC(N)=O)C(=O)N[C@@H]([C@@H](C)O)C(=O)N[C@@H](C)C(=O)N[C@@H]([C@@H](C)O)C(=O)N1)[C@@H](C)O)C(C)C)C(=O)N[C@@H](Cc1ccc(O)cc1)C(=O)N[C@@H](CCC(N)=O)C(=O)N[C@@H](Cc1ccccc1)C(=O)N[C@H](C(=O)N[C@@H](CC(=O)O)C(=O)N[C@@H](CCCCN)C(=O)N[C@@H](CC(=O)O)C(=O)N[C@@H](CCCCN)C(=O)N[C@@H](CC(=O)O)C(=O)N[C@@H](CC(N)=O)C(=O)N[C@H](C(=O)N[C@@H](C)C(=O)N1CCC[C@H]1C(=O)N[C@H](C(=O)N[C@@H](CC(N)=O)C(=O)N[C@H](C(=O)NCC(=O)N[C@@H](CO)C(=O)N[C@@H](CC(N)=O)C(=O)NCC(=O)N1C[C@H](O)C[C@H]1C(N)=O)C(C)C)[C@@H](C)O)C(C)C)[C@@H](C)O [compound 255] (H-KCNTATCTVQ[Cit]LAHQIYQFTDKDKDNVAPTNVGSNG[Hyp]-NH2; disulfide 2-7; N-terminus assumed)
Max ThT signal (%) [1]: 25.000% | EC50 (hAM1 receptor): > 5000 nM | EC50 (hAMY3 receptor): 0.007 nM

CC[C@H](C)[C@H](NC(=O)[C@H](CCC(N)=O)NC(=O)[C@H](Cc1c[nH]cn1)NC(=O)[C@H](C)NC(=O)[C@H](CC(C)C)NC(=O)[C@H](Cc1c[nH]c2ccccc12)NC(=O)[C@H](CCC(N)=O)NC(=O)[C@@H](NC(=O)[C@@H](NC(=O)[C@@H]1CSSC[C@H](NC(=O)CN)C(=O)N[C@@H](CCCNC(=N)N)C(=O)N[C@@H]([C@@H](C)O)C(=O)NCC(=O)N[C@@H]([C@@H](C)O)C(=O)N1)[C@@H](C)O)C(C)C)C(=O)N[C@@H](Cc1ccc(O)cc1)C(=O)N[C@@H](CCC(N)=O)C(=O)N[C@@H](Cc1ccccc1)C(=O)N[C@H](C(=O)N[C@@H](CC(=O)O)C(=O)N[C@@H](CCCCN)C(=O)N[C@@H](CC(=O)O)C(=O)N[C@@H](CCCCN)C(=O)N[C@@H](CC(=O)O)C(=O)N[C@@H](CC(N)=O)C(=O)N[C@H](C(=O)N[C@@H](C)C(=O)N1CCC[C@H]1C(=O)N[C@@H](CCCNC(=N)N)C(=O)N[C@H](C(=O)N[C@@H](CC(N)=O)C(=O)N[C@H](C(=O)NCC(=O)N1CCC[C@H]1C(=O)N[C@@H](CC(N)=O)C(=O)NCC(=O)N[C@@H](Cc1ccc(O)cc1)C(N)=O)C(C)C)[C@@H](C)O)C(C)C)[C@@H](C)O [compound 332] (H-GCRTGTCTVQWLAHQIYQFTDKDKDNVAPRTNVGPNGY-NH2; disulfide 2-7; N-terminus assumed)
Max ThT signal (%) [1]: 2.100% | EC50 (hAM1 receptor): > 5000 nM | EC50 (hAMY3 receptor): 0.007 nM

From patent publication US12139520B2 (priority 2020, dated 2024)
